Source: PMC6179041, “The insight of in vitro and in silico studies on cholinesterase inhibitors from the roots of Cimicifuga dahurica (Turcz.) Maxim” (Journal of Enzyme Inhibition and Medicinal Chemistry, 2018)
Entries after “also recorded” stand apart in the source; their conditions may differ. Like-named read-outs stand apart in the source and are kept apart here.

Key:
BuChE = BuChE (Equus caballus, UniProt P81908); assay: biochemical; format: biochemical; details: for inhibition at 100 µM: read-out: BuChE inhibitory activity at 100 μM (%); for Binding mode (BuChE): Lineweaver-Burk plots
AChE = biological target: T1, AChE (Electrophorus electricus, UniProt O42275); assay: biochemical; format: biochemical; details: for inhibition at 100 µM: read-out: AChE inhibitory activity at 100 μM (%)
T1 construct: purchased Sigma-Aldrich C3389

[1] = 100 μM compound, mean ± SEM, tested three times
[2] = mean ± SEM, tested three times, read-out: BuChE IC50
[3] = mean ± SEM, tested three times, read-out: AChE IC50
[4] = secondary replot, read-out: Ki (μM) on BuChE

Chain of BuChE (P81908 whole entry): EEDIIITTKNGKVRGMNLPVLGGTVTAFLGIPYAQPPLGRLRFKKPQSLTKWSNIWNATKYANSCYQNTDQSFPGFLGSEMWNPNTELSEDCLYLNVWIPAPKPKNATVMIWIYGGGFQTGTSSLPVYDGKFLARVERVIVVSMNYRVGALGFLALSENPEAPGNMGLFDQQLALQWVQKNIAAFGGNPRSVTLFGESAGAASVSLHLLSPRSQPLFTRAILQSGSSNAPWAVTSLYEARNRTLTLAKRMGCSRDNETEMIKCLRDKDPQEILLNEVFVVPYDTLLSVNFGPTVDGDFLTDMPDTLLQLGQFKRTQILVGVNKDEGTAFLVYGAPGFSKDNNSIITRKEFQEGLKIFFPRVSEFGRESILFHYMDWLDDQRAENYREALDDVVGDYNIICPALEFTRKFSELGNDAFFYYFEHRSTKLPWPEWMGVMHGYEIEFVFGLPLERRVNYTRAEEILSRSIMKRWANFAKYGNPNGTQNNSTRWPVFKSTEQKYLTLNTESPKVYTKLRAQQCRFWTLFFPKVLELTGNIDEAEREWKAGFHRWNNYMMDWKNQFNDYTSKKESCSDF
T1 sequence (O42275 24-633): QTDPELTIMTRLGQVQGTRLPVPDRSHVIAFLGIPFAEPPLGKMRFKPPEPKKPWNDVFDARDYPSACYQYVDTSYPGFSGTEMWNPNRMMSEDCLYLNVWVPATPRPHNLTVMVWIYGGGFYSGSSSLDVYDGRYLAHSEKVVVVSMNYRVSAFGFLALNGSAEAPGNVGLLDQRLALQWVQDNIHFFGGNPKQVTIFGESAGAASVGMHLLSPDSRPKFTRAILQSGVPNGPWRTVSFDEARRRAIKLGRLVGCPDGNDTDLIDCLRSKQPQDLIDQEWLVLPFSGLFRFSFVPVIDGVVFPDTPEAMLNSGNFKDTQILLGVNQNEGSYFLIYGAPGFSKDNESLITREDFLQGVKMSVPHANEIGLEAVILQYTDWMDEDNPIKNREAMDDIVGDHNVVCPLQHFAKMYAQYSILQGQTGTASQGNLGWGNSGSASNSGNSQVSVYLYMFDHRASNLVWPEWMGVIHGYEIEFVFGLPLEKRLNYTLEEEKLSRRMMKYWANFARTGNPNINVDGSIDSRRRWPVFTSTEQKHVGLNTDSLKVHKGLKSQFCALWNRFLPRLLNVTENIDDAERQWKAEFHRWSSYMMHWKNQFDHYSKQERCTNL

Compound	IC50 (BuChE) [µM]	inhibition at 100 µM (BuChE) [%]	inhibition at 100 µM (AChE) [%]	also measured
C[C@@H]1C[C@H]2O[C@]3(O[C@@H]2C(C)(C)O)[C@H]1[C@@]1(C)CC[C@@]24C[C@@]25CC[C@H](O)C(C)(C)[C@@H]5CC=C4[C@]1(C)[C@H]3O [Compound 5, 7,8-didehydrocimigenol]	60.9 ± 1.2	53.6 ± 0.9	43.1 ± 5.6	
COC(=O)/C=C/c1ccc(O)c(OC)c1 [Compound 2, ferulic acid methyl ester]				inhibition at 100 µM (BuChE; [1]): 62.3 ± 0.3%; IC50 (BuChE; [2]): 37.1 ± 1.5 µM; inhibition at 100 µM (AChE; [1]): 58 ± 0.6%; IC50 (AChE; [3]): 52.4 ± 3.7 µM
3-O-β-D-xylopyranosyl-24S,25-dihydroxy-15-oxo-acta-(16R,23R)-16,23-monoxoside [Compound 17]				BuChE inhibitory activity at 100 μM (%) (BuChE; [1]): 55.4 ± 0.8%; IC50 (BuChE; [2]): 84.1 ± 5.7 µM; AChE inhibitory activity at 100 μM (%) (AChE; [1]): 47.1 ± 1.6%
CC(=O)O[C@@H]1C[C@@]23C[C@@]24CC[C@H](O)C(C)(C)[C@@H]4CC=C3[C@]2(C)C[C@@H]3O[C@]4(C[C@@H](C)[C@@H]3[C@@]12C)O[C@H](O)[C@@]1(C)O[C@@H]41 [Compound 7, 25-triepoxy-12β-acetoxy-3β,26-dihydroxy-9,19-cyclolanost-7-ene]		41 ± 0.1	52 ± 0.1	IC50 (AChE): 92.1 ± 2.2 µM
CC(=O)O[C@@H]([C@H]1C[C@@H](C)[C@H]2[C@@](O)(O1)[C@H](O)[C@@]1(C)C3=CC[C@H]4C(C)(C)[C@@H](O)CC[C@@]45C[C@@]35CC[C@]21C)C(C)(C)O [Compound 6, 24-epi-24-O-acetyl-7,8-didehydroshengmanol]	90.9 ± 6	57.3 ± 0.3	53.7 ± 1.6	IC50 (AChE): 94.9 ± 3.5 µM
CC1CC2OC3(OC2C(C)(C)O)C1C1(C)CCC24CC25CCC(O)C(C)(C)C5CC=C4C1(C)C3O (stereo not drawn) [Compound 10, 24-epi-7,8-didehydrocimigenol]		41.1 ± 2.2	31.8 ± 0.5	
CC(C)=CC=C1C(=O)Nc2ccccc21 [Compound 4, (E)-3‐(3′-methyl-2′-butenylidene)-2-indolinone]				inhibition at 100 µM (BuChE; [1]): 93.1 ± 0.6%; Binding mode (BuChE) (BuChE): noncompetitive mode; also recorded: Non-competitive type (BuChE); IC50 (BuChE; [2]): 6.5 ± 2.5 µM; Ki (BuChE; [4]): 3.5 ± 1.5 µM; inhibition at 100 µM (AChE; [1]): 61 ± 4.6%; IC50 (AChE; [3]): 48 ± 6.8 µM
CC1CC2OC3(OC2C(C)(C)O)C1C1(C)CCC24CC25CCC(OC2OCC(O)C(O)C2O)C(C)(C)C5CC=C4C1(C)C3O [Compound 16, 24-epi-7,8-didehydrocimigenol 3-O-β-D-xylopyranoside]	31 ± 5.5	62 ± 0.8	19 ± 2.5	
CC(=O)OC(C)(C)C1OC23OC1CC(C)C2C1(C)CCC24CC25CCC(O)C(C)(C)C5CC=C4C1(C)C3O (stereo not shown) [Compound 8, 25-O-acetyl-7,8-didehydrocimigenol]		18 ± 0.4	55.4 ± 2.6	IC50 (AChE): 69.5 ± 1.2 µM
CC(=O)OC(C)(C)C1OC23OC1CC(C)C2C1(C)CCC24CC25CCC(OC2OCC(O)C(O)C2O)C(C)(C)C5CC=C4C1(C)C3O [Compound 14, 25-O-acetyl-7,8-didehydrocimigenol 3-O-β-D-xylopyranoside]	22.6 ± 0.4	55 ± 0.7	24.9 ± 6.2	Ki (BuChE): 10.7 ± 1.3 µM; Binding mode (BuChE) (BuChE): competing with substrate; also recorded: Competitive type (BuChE)
C=C(C)[C@H]1O[C@@]23O[C@@H]1C[C@@H](C)[C@@H]2[C@@]1(C)CC[C@@]24C[C@@]25CC[C@H](O[C@@H]2OC[C@@H](O)[C@H](O)[C@H]2O)C(C)(C)[C@@H]5CCC4[C@]1(C)[C@H]3O (stereo partly drawn) [Compound 15, 25-anhydrocimigenol-3-O-β-D-xylopyranoside]	33.3 ± 5	60.7 ± 0.6	37.1 ± 0.5	
COc1ccc(/C=C/C(=O)OCC(=O)c2ccc(O)c(O)c2)cc1O [Compound 1, cimiciphenone]				inhibition at 100 µM (BuChE; [1]): 13.6 ± 0.7%; inhibition at 100 µM (AChE; [1]): 65.4 ± 0.9%; Binding mode (AChE) (AChE; Lineweaver-Burk plots): competitive inhibitor; also recorded: Competitive type (AChE); IC50 (AChE; [3]): 16.7 ± 1.9 µM; Ki (AChE; secondary replot): 16.2 ± 0.9 µM
C=C(C)C1OC23OC1CC(C)C2C1(C)CCC24CC25CCC(O)C(C)(C)C5CC=C4C1(C)C3O (stereo not shown) [Compound 9, 25-anhydro-7,8-didehydrocimigenol]	35.1 ± 1.2	51 ± 1.9	48.6 ± 0.6	
CC(=O)OC(C)(C)[C@H]1O[C@@]23O[C@@H]1C[C@@H](C)[C@@H]2[C@@]1(C)CC[C@@]24C[C@@]25CC[C@H](O)C(C)(C)[C@@H]5CC[C@H]4[C@]1(C)[C@H]3O [Compound 11, 25-O-acetylcimigenol]		14 ± 2.6	15.8 ± 4.3	
C=C(C)C1OC23OC1CC(C)C2C1(C)CCC24CC25CCC(OC2OCC(O)C(O)C2O)C(C)(C)C5CC=C4C1(C)C3O [Compound 19, 7,8-didehydro-25-anhydrocimigenol-3-O-β-D-xylopyranoside]		38.5 ± 0.1	21.5 ± 1.7	
CC(C)=CC=C1C(=O)N(C)c2ccccc21 [Compound 3, (E)-3‐(3′-methyl-2′-butenylidene)-1-methyl-2-indolinone]				inhibition at 100 µM (BuChE; [1]): 88.7 ± 1.3%; Binding mode (BuChE) (BuChE): noncompetitive mode; also recorded: Non-competitive type (BuChE); IC50 (BuChE; [2]): 13.8 ± 1.2 µM; Ki (BuChE; [4]): 4.9 ± 2.1 µM; inhibition at 100 µM (AChE; [1]): 53.8 ± 0.1%; IC50 (AChE; [3]): 95.8 ± 5.1 µM
CC(=O)O[C@H]([C@H]1C[C@@H](C)[C@H]2[C@@](O)(O1)[C@H](O)[C@@]1(C)C3=CC[C@H]4C(C)(C)[C@@H](O)CC[C@@]45C[C@@]35CC[C@]21C)C(C)(C)O [Compound 12, 24-epi-24-O-acetyl-7,8-didehydroshengmanol]		18.6 ± 0.3	28 ± 4	
CC(=O)OC1C(OC2CCC34CC35CCC3(C)C6C(C)CC7OC6(OC7C(C)(C)O)C(O)C3(C)C5=CCC4C2(C)C)OCC(O)C1O (stereo not shown) [Compound 18, cimiricaside A]	51 ± 0.5	54.4 ± 1.3	23.1 ± 6.8	
C=C(C)[C@H]1O[C@@]23O[C@@H]1C[C@@H](C)[C@@H]2[C@@]1(C)CC[C@@]24C[C@@]25CC[C@H](O)C(C)(C)[C@@H]5CC=C4[C@]1(C)[C@H]3O [Compound 13, 25-anhydrocimigenol]		44.9 ± 1.1	42.8 ± 0.8	
